According to patent US6750012B1, “Method of identifying a psychotropic agent using differential gene expression” (CuraGen Corporation, priority 1998, dated 2004):

Assays:
[1] = system: HALO1, novel gene fragment, 86 bp; assay: GENECALLING differential gene expression, striatum of haloperidol-treated rats; assay type: in vivo, rat
Description: (§1) Accordingly, the differentially expressed genes were identified by treating Wistar rats with haloperidol (0.041 mg/kg/d for 3 days via continuous infusion Alza pump), or rats treated with vehicle only for 3 days.
(§2) Rats were then sacrificed, their brains were removed, and total RNA was recovered from the microdissected striatum. cDNA was prepared and the resulting samples were processed through 140 subsequences of GENECALLING™ differential expression analysis as described in U.S. Pat. No. 5,871,697 and in Shimkets et al., Nature Biotechnology 17:198-803 (1999).
(§3) 101 gene fragments were initially found to be differentially expressed in rat striatum in response to haloperidol. The differential expression of 50 of the gene fragments was confirmed using a unlabeled oligonucleotide competition assay as described in Shimkets et al., Nature Biotechnology 17:198-803. 32 single copy nucleic acid sequences genes and 5 repetitive copy nucleic acid sequences differentially expressed in haloperidol and vehicle treated striatum were selected for further analysis elements.

[2] = system: HALO10, novel gene fragment, 89% similar to human rab5c-like protein [U11293]; assay: as above; assay type: in vivo, rat
Description: as §1, §2, §3

[3] = system: HALO11, novel gene fragment, 88% similar to human KIAA0383 gene [AB002381]; assay: as above; assay type: in vivo, rat
Description: as §1, §2, §3

[4] = system: HALO13, novel gene fragment, 80% similar to human suilisol [L26247]; assay: as above; assay type: in vivo, rat
Description: as §1, §2, §3

[5] = system: HALO16, novel gene fragment, 70% similar to E. coli putative ATP-dependent RNA helicase RHLB [P24229]; assay: as above; assay type: in vivo, rat
Description: as §1, §2, §3

[6] = system: HALO17, novel gene fragment, 65% similarity to 5′ region of human NOF1 [U39400]; assay: as above; assay type: in vivo, rat
Description: as §1, §2, §3

[7] = system: HALO18, novel gene fragment, encoded polypeptide 80% similar to human predicted protein DJ257A7.1 [AL008729]; assay: as above; assay type: in vivo, rat
Description: as §1, §2, §3

[8] = system: HALO19, Ribosomal protein L18a [X14181]; assay: as above; assay type: in vivo, rat
Description: as §1, §2, §3

[9] = system: HALO2, novel gene fragment, 121 bp; assay: as above; assay type: in vivo, rat
Description: as §1, §2, §3

[10] = system: HALO20, Inositol 1.4.5-triphosphate 3-kinase [M29787]; assay: as above; assay type: in vivo, rat
Description: as §1, §2, §3

[11] = system: HALO21, 2′-3′ cyclic nucleotide 3′ phosphodiesterase [CNPII] [L16532]; assay: as above; assay type: in vivo, rat
Description: as §1, §2, §3

[12] = system: HALO22, NGFI-B [U17254]; assay: as above; assay type: in vivo, rat
Description: as §1, §2, §3

[13] = system: HALO23, Neurogranin [L09119]; assay: as above; assay type: in vivo, rat
Description: as §1, §2, §3

[14] = system: HALO24, V-1 protein; assay: as above; assay type: in vivo, rat
Description: as §1, §2, §3

[15] = system: HALO25, 190 kDa ankyrin isoform; assay: as above; assay type: in vivo, rat
Description: as §1, §2, §3

[16] = system: HALO26, Cathepsin S; assay: as above; assay type: in vivo, rat
Description: as §1, §2, §3

[17] = system: HALO27, D-Amino acid oxidase; assay: as above; assay type: in vivo, rat
Description: as §1, §2, §3

[18] = system: HALO28, Stomach nonmuscle Ca^+2 ATPase [J04023]; assay: as above; assay type: in vivo, rat
Description: as §1, §2, §3

[19] = system: HALO33, NGF1-A; assay: as above; assay type: in vivo, rat
Description: as §1, §2, §3

[20] = system: HALO34, JunB [X54686]; assay: as above; assay type: in vivo, rat
Description: as §1, §2, §3

[21] = system: HALO35, Synaptophysin [p38]; assay: as above; assay type: in vivo, rat; conditions: present studies
Description: as §1, §2, §3

[22] = system: HALO6, novel gene fragment, 95% similarity to mouse quaking gene type 1 [U44940]; assay: as above; assay type: in vivo, rat
Description: as §1, §2, §3

[23] = system: HALO7, novel gene fragment, 86% similar to human U1 snRNP 70 kDa protein; assay: as above; assay type: in vivo, rat
Description: as §1, §2, §3

[24] = system: HALO8, novel gene fragment, 91% similar to mouse phosphatidylinositol 3 kinase 110 kDa subunit [U03279]; assay: as above; assay type: in vivo, rat
Description: as §1, §2, §3

[25] = system: HALO9, novel gene fragment, 98% similar to mouse meis2 [U57343]; assay: as above; assay type: in vivo, rat
Description: as §1, §2, §3

[26] = system: L1 retrotransposon ORF2 (HALO29 in Table 1, HALO32 in text); assay: as above; assay type: in vivo, rat
Description: as §1, §2, §3

[27] = system: L1 retrotransposon mIvi2-rn38 (HALO32 in Table 1, HALO31 in text); assay: as above; assay type: in vivo, rat
Description: as §1, §2, §3

[28] = system: Long interspersed repetitive DNA containing 7 ORFs (HALO31 in Table 1, HALO30 in text); assay: as above; assay type: in vivo, rat
Description: as §1, §2, §3

[29] = system: long interspersed repetitive DNA sequence LINE3 (HALO30 in Table 1, HALO29 in text); assay: as above; assay type: in vivo, rat
Description: as §1, §2, §3

[30] = system: HALO12, rat novel gene fragment, 83% homologous to mouse EGF repeat transmembrane protein; assay: as above; assay type: in vivo
Description: as §1, §2, §3

[31] = system: HALO14, novel gene fragment, 72% similar to rat repetitive ribosomal DNA II 3′ to 45S pre-rRNA [X02822]; assay: as above; assay type: in vivo
Description: as §1, §2, §3

[32] = system: HALO15, novel gene fragment, 97% similar to mouse gene fragment with 44% amino acid similarity to human sorting nexin-2; assay: as above; assay type: in vivo; conditions: Wistar rat striatum, 0.041 mg/kg/d for 3 days continuous infusion, vs vehicle
Description: as §1, §2, §3

[33] = system: HALO3, rat novel gene fragment, 495 bp; assay: as above; assay type: in vivo; conditions: Wistar rat striatum, 0.041 mg/kg/d for 3 days continuous infusion, vs vehicle
Description: as §1, §2, §3

[34] = system: HALO4, novel gene fragment, 649 bp; assay: as above; assay type: in vivo; conditions: Wistar rat striatum, 0.041 mg/kg/d for 3 days continuous infusion, vs vehicle
Description: as §1, §2, §3

[35] = system: HALO5, novel gene fragment, 539 bp; assay: as above; assay type: in vivo; conditions: Wistar rat striatum, 0.041 mg/kg/d for 3 days continuous infusion, vs vehicle
Description: as §1, §2, §3

[36] = system: rats; assay: Motor disturbances in rats treated for 28 days; assay type: in vivo, rat
[37] = system: Inisotaol monophsphates; conditions: 4-6 weeks following administration, decanoate dosing; cited from earlier work
[38] = system: sigma receptors; conditions: Seth et al, J Neurochem 70; cited from earlier work
[39] = Wistar rat striatum, 0.041 mg/kg/d for 3 days continuous infusion, vs vehicle
[40] = haloperidol-treated rats, striatum
[41] = haloperidol-treated rats, striatum, present studies

SMILES: O=C(CCCN1CCC(O)(c2ccc(Cl)cc2)CC1)c1ccc(F)cc1 [haloperidol]
- Haloperidol Effect on Transcript Level: HALO1 [1, 39]: −2.9
- HALO1 expression decreased [1, 40]: 2.9 fold
- Haloperidol Effect on Transcript Level: HALO10 [2, 39]: −2.0
- HALO10 expression diminished [2, 40]: 2 fold
- Haloperidol Effect on Transcript Level: HALO11 [3, 39]: −2.0
- HALO11 expression increased [3, 40]: 4 fold
- Haloperidol Effect on Transcript Level: HALO13 [4, 39]: +6.3
- HALO13 expression increased [4, 40]: 6.3 fold
- Haloperidol Effect on Transcript Level: HALO16 [5, 39]: −8
- HALO16 expression diminished [5, 40]: 8 fold
- Haloperidol Effect on Transcript Level: HALO17 [6, 39]: −10
- HALO17 expression diminished [6, 40]: 10 fold
- Haloperidol Effect on Transcript Level: HALO18 [7, 39]: −2.5
- HALO18 expression diminished [7, 40]: 2.5 fold
- Haloperidol Effect on Transcript Level: HALO19 Ribosomal protein L18a [8, 39]: +1.8
- HALO19 (L18a) transcription increased [8, 40]: 1.8 fold
- Haloperidol Effect on Transcript Level: HALO2 [9, 39]: −2
- HALO2 expression decreased [9, 40]: 2 fold
- Haloperidol Effect on Transcript Level: HALO20 Inositol 1.4.5-triphosphate 3-kinase [10, 39]: +2
- HALO20 expression increased [10, 40]: 2 fold
- Haloperidol Effect on Transcript Level: HALO21 CNPII [11, 39]: −3
- HALO21 (CNPII) expression decreases [11, 40]: 3.0 folf
- Haloperidol Effect on Transcript Level: HALO22 NGFI-B [12, 39]: +2.4
- NGFI-B expression increased (under heading HALO22) [12, 40]: 2.4 fold
- Haloperidol Effect on Transcript Level: HALO23 Neurogranin [13, 39]: +1.1
- HALO23 (neurogranin) expression increased [13, 40]: 1.1 fold
- Haloperidol Effect on Transcript Level: HALO24 V-1 protein [14, 39]: −2.0
- HALO24 (V-1 protein) expression decreased [14, 40]: 2.0 fold
- Haloperidol Effect on Transcript Level: HALO25 190 kDa ankyrin isoform [15, 39]: −2.0
- HALO25 (190 kDA ankyrin isoform) expression decreased [15, 40]: 2.0 fold
- Haloperidol Effect on Transcript Level: HALO26 Cathepsin S [16, 39]: −1.7
- HALO26 (cathepsin S) expression decreased [16, 40]: 1.7 fold
- Haloperidol Effect on Transcript Level: HALO27 D-Amino acid oxidase [17, 39]: −2.0
- HALO27 (D-amino acid oxidase) expression decreased [17, 40]: 2.0 fold
- Haloperidol Effect on Transcript Level: HALO28 Stomach nonmuscle Ca^+2 ATPase [18, 39]: +2
- HALO28 (stomach nonmuscle Ca+2 ATPase) expression increased [18, 40]: 2 fold
- Haloperidol Effect on Transcript Level: HALO33 NGF1-A [19, 39]: −3
- HALO33 (NGF1-A) expression increased [19, 41]: 1.6 fold
- Haloperidol Effect on Transcript Level: HALO34 JunB [20, 39]: +4
- HALO34 (JunB) expression increased [20, 41]: 4 fold
- HALO35 (synaptophysin) expression varied [21]: ~1 fold
- Haloperidol Effect on Transcript Level: HALO6 [22, 39]: −2
- HALO6 expression decreased [22, 40]: 2 fold
- Haloperidol Effect on Transcript Level: HALO7 [23, 39]: −1.7
- HALO7 expression diminished [23, 40]: 1.7 fold
- Haloperidol Effect on Transcript Level: HALO8 [24, 39]: −2
- HALO8 expression diminished [24, 40]: 2 fold
- Haloperidol Effect on Transcript Level: HALO9 [25, 39]: +1.6
- HALO9 expression increased [25, 40]: 1.6 fold
- Haloperidol Effect on Transcript Level: HALO29 L1 retrotransposon ORF2 [26, 39]: −3.3
- L1 retrotransposon ORF2 expression decreases (text: HALO32) [26, 40]: 3.3 fold
- Haloperidol Effect on Transcript Level: HALO32 L1 retrotransposon mIvi2-rn38 [27, 39]: −5.5
- L1 retrotransposon ml vi2-m38 expression decreases (text: HALO31) [27, 40]: 5.5 fold
- Haloperidol Effect on Transcript Level: HALO31 Long interspersed repetitive DNA containing 7 ORFs [28, 39]: −3.5
- long interspersed repetitive DNA containing 7 ORF expression decreases (text: HALO30) [28, 40]: 3.5 fold
- Haloperidol Effect on Transcript Level: HALO30 LINE3 [29, 39]: −5
- LINE3 expression decreases (text: HALO29) [29, 40]: 5 fold
- Haloperidol Effect on Transcript Level: HALO12 [30, 39]: +3
- HALO12 expression increased [30, 40]: 3 fold
- Haloperidol Effect on Transcript Level: HALO14 [31, 39]: −5
- HALO14 expression diminished [31, 40]: 5 fold
- Haloperidol Effect on Transcript Level: HALO15 [32]: +1.0
- Haloperidol Effect on Transcript Level: HALO3 [33]: −2.5
- Haloperidol Effect on Transcript Level: HALO4 [34]: −3
- Haloperidol Effect on Transcript Level: HALO5 [35]: −1.5
- motor disturbances [36]: motor disturbances that parallel human pathology
- Inositol monophosphates level [37]: decrease
- binding activity with sigma receptors [38]: binding activity
